Experimental data: BindingDB's records for patent US20250163072 (Hoffmann-La Roche, 2025)

target: GTPase KRas [G12C]/Serine/threonine-protein kinase B-raf (Human, UniProt P01116+P15056, G12C); assay: KRAS G12C-BRAF NanoBit Assay
Experimental: HEK293 cells were grown and maintained using DMEM medium (Thermo Fisher Scientific) with 10% fetal bovine serum and 1% penicillin/streptomycin. Both KRAS G12C and BRAF RBD were cloned into the NanoBit vectors ([…] vectors system, Promega) with the orientations SmBit-KRAS G12C and BRAF RBD-LgBit, respectively, and co-transfected into HEK293 cells. Cells were then selected with 100 μg/mL Hygromycin B (10687010, Thermo Fisher) and Blasticidin (5 μg/mL) for 4 weeks to get the stable cell pool. On the day of the assay, 75 nL of compound solution was presented in a 384-well assay plate as a 16-point 3-fold dilution starting from a final concentration of 30 μM in DMSO. Then cells were seeded at 10,000 cells/25 μL/well in a 384-well plate. After 3 hours of incubation, 6 μL of volume of Nano-Glo Live Cell Substrate (Promega) was added into each well. Monitor luminescence using ultra384 model in Envision at 20 minutes. Compounds that facilitate disruption of the KRAS G12C-BRAF RBD complex were identified as those eliciting a decrease of luminescence relative to DMSO control wells.

Chain of GTPase KRas [G12C]/Serine/threonine-protein kinase B-raf (P01116 whole entry G12C): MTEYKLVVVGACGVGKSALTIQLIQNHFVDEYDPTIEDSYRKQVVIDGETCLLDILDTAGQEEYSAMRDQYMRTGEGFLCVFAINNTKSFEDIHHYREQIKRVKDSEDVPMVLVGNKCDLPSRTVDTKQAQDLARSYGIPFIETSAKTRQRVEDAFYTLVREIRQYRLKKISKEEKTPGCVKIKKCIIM
Chain of GTPase KRas [G12C]/Serine/threonine-protein kinase B-raf (P15056 2-766 limits assumed): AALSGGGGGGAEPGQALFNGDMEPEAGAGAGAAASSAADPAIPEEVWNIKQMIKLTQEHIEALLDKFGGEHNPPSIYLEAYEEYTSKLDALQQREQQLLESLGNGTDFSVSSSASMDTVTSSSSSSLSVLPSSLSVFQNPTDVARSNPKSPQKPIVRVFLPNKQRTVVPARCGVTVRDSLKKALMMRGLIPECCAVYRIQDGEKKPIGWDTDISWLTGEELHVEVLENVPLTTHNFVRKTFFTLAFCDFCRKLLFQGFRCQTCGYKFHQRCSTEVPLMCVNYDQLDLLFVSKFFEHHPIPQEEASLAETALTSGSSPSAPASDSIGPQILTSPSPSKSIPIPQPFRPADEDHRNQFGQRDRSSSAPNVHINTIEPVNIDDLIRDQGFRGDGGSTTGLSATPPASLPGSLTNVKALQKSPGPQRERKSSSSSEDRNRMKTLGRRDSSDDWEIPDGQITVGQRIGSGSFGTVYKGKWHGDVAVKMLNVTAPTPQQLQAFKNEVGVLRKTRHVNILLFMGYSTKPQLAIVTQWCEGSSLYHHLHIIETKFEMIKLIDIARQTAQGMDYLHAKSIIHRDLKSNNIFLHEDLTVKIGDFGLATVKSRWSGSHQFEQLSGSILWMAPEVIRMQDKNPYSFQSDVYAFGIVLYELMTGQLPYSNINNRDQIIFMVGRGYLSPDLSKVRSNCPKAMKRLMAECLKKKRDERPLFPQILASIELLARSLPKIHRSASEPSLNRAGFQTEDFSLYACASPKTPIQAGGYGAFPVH

Structure (SMILES)	IC50
CCn1c(-c2cccnc2[C@H](C)OC)c2c3cc(ccc31)-c1cc(O)cc(c1)C[C@H](NC(=O)[C@H](C(C)C)N(C)C(=O)C1CCN(C(=O)C#CCN3CCOCC3)C1)C(=O)N1CCC[C@H](N1)C(=O)OCC(C)(C)C2 (stereo partly drawn) [US20250163072, Example RM018]	268 nM
CC(C)[C@@H](C(=O)N[C@H]1Cc2cc(O)cc(c2)-c2ccc3c(C(C)(C)C#N)cn(c3c2)CC(C)(C)COC(=O)[C@@H]2CCCN(N2)C1=O)N1CCCC2(CCN(C(=O)CCl)C2)C1=O (stereo partly drawn) [US20250163072, Example RM351]	1780 nM
CCn1c(-c2cccnc2[C@H](C)OC)c2c3cc(ccc31)-c1cc(O)cc(c1)C[C@H](NC(=O)[C@H](C(C)C)N(C)C(=O)C1CN(C(=O)CCl)C1)C(=O)N1CCC[C@H](N1)C(=O)OCC(C)(C)C2 [US20250163072, Example RM461]	440 nM
